# PubChem BioAssay (NCI)
#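 Tested at 5 concentrations; 48 h exposure; 96-well plates; endpoints linearly interpolated, else capped at highest concentration. The concentration for 50% growth inhibition is given as GI50. TGI: total growth inhibition.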
# Legend:
# Experiment in all cases: NCI-60 cell line screen, 48 h
# [1] = test system: 786-0 renal
# [2] = test system: A498 renal
# [3] = test system: A549 NSCLC
# [4] = test system: ACHN renal
# [5] = test system: BT-549 breast
# [6] = test system: CAKI-1 renal
# [7] = test system: CCRF-CEM leukemia
# [8] = test system: COLO 205 colon
# [9] = test system: DU-145 prostate
# [10] = test system: EKVX NSCLC
# [11] = test system: HCC-2998 colon
# [12] = test system: HCT-116 colon
# [13] = test system: HCT-15 colon
# [14] = test system: HL-60(TB) leukemia
# [15] = test system: HOP-62 NSCLC
# [16] = test system: HOP-92 NSCLC
# [17] = test system: HS 578T breast
# [18] = test system: HT29 colon
# [19] = test system: IGROV1 ovarian
# [20] = test system: K-562 leukemia
# [21] = test system: KM12 colon
# [22] = test system: LOX IMVI melanoma
# [23] = test system: M14 melanoma
# [24] = test system: MALME-3M melanoma
# [25] = test system: MCF7 breast
# [26] = test system: MDA-MB-231 breast
# [27] = test system: MDA-MB-435
# [28] = test system: MOLT-4 leukemia
# [29] = test system: NCI-H226 lung
# [30] = test system: NCI-H23 lung
# [31] = test system: NCI-H460 lung
# [32] = test system: NCI-H522 lung
# [33] = test system: NCI/ADR-RES ovarian
# [34] = test system: OVCAR-3 ovarian
# [35] = test system: OVCAR-4 ovarian
# [36] = test system: OVCAR-5 ovarian
# [37] = test system: OVCAR-8 ovarian
# [38] = test system: PC-3 prostate
# [39] = test system: RPMI-8226 leukemia
# [40] = test system: RXF 393 renal
# [41] = test system: SF-268 CNS
# [42] = test system: SF-295 CNS
# [43] = test system: SF-539 CNS
# [44] = test system: SK-MEL-2 melanoma
# [45] = test system: SK-MEL-28 melanoma
# [46] = test system: SK-MEL-5 melanoma
# [47] = test system: SK-OV-3 ovarian
# [48] = test system: SN12C renal
# [49] = test system: SNB-19 CNS
# [50] = test system: SNB-75 CNS
# [51] = test system: SR leukemia
# [52] = test system: SW-620 colon
# [53] = test system: T-47D breast
# [54] = test system: TK-10 renal
# [55] = test system: U251 CNS
# [56] = test system: UACC-257 melanoma
# [57] = test system: UACC-62 melanoma
# [58] = test system: UO-31 renal
compound,measurement,setting,value
C=C1SC(=Nc2ccccc2Cl)N(C(=O)c2sc3ccccc3c2Cl)C1(C)C,GI50,[1],25.4 µM
same,TGI,[1],> 81.9 µM
same,GI50,[2],4.04 µM
same,TGI,[2],> 57.5 µM
same,GI50,[3],4.5 µM
same,TGI,[3],> 100 µM
same,GI50,[4],3.24 µM
same,TGI,[4],> 46 µM
same,GI50,[5],10 µM
same,TGI,[5],49.2 µM
same,GI50,[6],2730 nM
same,TGI,[6],19.4 µM
same,GI50,[7],3.93 µM
same,TGI,[7],> 25.3 µM
same,GI50,[8],3.49 µM
same,TGI,[8],11 µM
same,GI50,[9],11.3 µM
same,TGI,[9],> 100 µM
same,GI50,[10],2380 nM
same,TGI,[10],18.2 µM
same,GI50,[11],8.54 µM
same,TGI,[11],> 45 µM
same,GI50,[12],8.01 µM
same,TGI,[12],> 44.5 µM
same,GI50,[13],4.94 µM
same,TGI,[13],> 57.5 µM
same,GI50,[14],9.3 µM
same,TGI,[14],> 100 µM
same,GI50,[15],10.5 µM
same,TGI,[15],> 51.1 µM
same,GI50,[16],3.47 µM
same,TGI,[16],> 22.8 µM
same,GI50,[17],5.66 µM
same,TGI,[17],57.8 µM
same,GI50,[18],14.2 µM
same,TGI,[18],51.7 µM
same,GI50,[19],6.2 µM
same,TGI,[19],> 100 µM
same,GI50,[20],4.51 µM
same,TGI,[20],> 37.4 µM
same,GI50,[21],4.01 µM
same,TGI,[21],> 51.9 µM
same,GI50,[22],9.62 µM
same,TGI,[22],> 100 µM
same,GI50,[23],21 µM
same,TGI,[23],> 69.9 µM
same,GI50,[24],2010 nM
same,TGI,[24],34.6 µM
same,GI50,[25],3.76 µM
same,TGI,[25],> 51.7 µM
same,GI50,[26],8.68 µM
same,TGI,[26],59.5 µM
same,GI50,[27],17.3 µM
same,TGI,[27],97 µM
same,GI50,[28],3.47 µM
same,TGI,[28],> 25.4 µM
same,GI50,[29],5.52 µM
same,TGI,[29],> 74.2 µM
same,GI50,[30],4.41 µM
same,TGI,[30],> 100 µM
same,GI50,[31],4.14 µM
same,TGI,[31],> 57.1 µM
same,GI50,[32],3.03 µM
same,TGI,[32],26.8 µM
same,GI50,[33],3.71 µM
same,TGI,[33],> 53 µM
same,GI50,[34],7.55 µM
same,TGI,[34],> 56.3 µM
same,GI50,[35],5.54 µM
same,TGI,[35],> 100 µM
same,GI50,[36],10.9 µM
same,TGI,[36],> 100 µM
same,GI50,[37],5.08 µM
same,TGI,[37],> 100 µM
same,GI50,[38],4.68 µM
same,TGI,[38],> 100 µM
same,GI50,[39],2440 nM
same,GI50,[40],16.6 µM
same,TGI,[40],> 86.5 µM
same,GI50,[41],12.9 µM
same,TGI,[41],> 100 µM
same,GI50,[42],2070 nM
same,TGI,[42],10.7 µM
same,GI50,[43],14 µM
same,TGI,[43],> 100 µM
same,GI50,[44],8.83 µM
same,TGI,[44],31.9 µM
same,GI50,[45],37.2 µM
same,TGI,[45],> 100 µM
same,GI50,[46],6.65 µM
same,TGI,[46],25.2 µM
same,GI50,[47],7.94 µM
same,TGI,[47],80.2 µM
same,GI50,[48],12.6 µM
same,TGI,[48],> 100 µM
same,GI50,[49],3.64 µM
same,TGI,[49],> 100 µM
same,GI50,[50],6.41 µM
same,TGI,[50],97.4 µM
same,GI50,[51],7.1 µM
same,TGI,[51],> 39.6 µM
same,GI50,[52],4.68 µM
same,TGI,[52],> 100 µM
same,GI50,[53],3.09 µM
same,TGI,[53],26.8 µM
same,GI50,[54],5.57 µM
same,TGI,[54],37.1 µM
same,GI50,[55],4.12 µM
same,TGI,[55],> 100 µM
same,GI50,[56],29.2 µM
same,TGI,[56],> 100 µM
same,GI50,[57],9.24 µM
same,TGI,[57],> 100 µM
same,GI50,[58],3.64 µM
same,TGI,[58],> 100 µM
